Laboratory results as given in patent publication US20240327392A1, “HETEROCYCLOALKYL-SUBSTITUTED POLYHETEROAZOLE DERIVATIVES AS MEDICAMENTS FOR TREATING AND/OR PREVENTING RS VIRUS INFECTIONS” (ALBIUS SCIENCES ALPHA PRIVATE LIMITED, priority 2021, published 2024).

The compounds below were run on human RS virus A2 strain (assay: In vitro test for anti-RS virus proliferation inhibitory activity (quantitative RT-PCR of RS virus RNA copy number in infected Vero cells)). Conditions: 72 h; Vero cells infected with human RS virus A2 strain, 3 days of incubation, RS virus N gene RNA copy number by quantitative RT-PCR; read-out: Anti-RS virus Activity.
Format: cell-based
Experimental: A mixture of Vero cells (3.4×10^5 cells/mL) and human RS virus A2 strain (1.7×10^4 TCID50/mL) (EMEM medium supplemented with 10% FCS) was added to a 96-well plate at 50 μL/well, and the 10% FCS-supplemented EMEM medium adjusted to the desired final concentration of the compounds to be tested was added at 50 μL/well, followed by incubating the plate at 37° C. in the presence of 5% CO2 at 37° C. After 3 days of incubation, the supernatant was removed, the cells were washed with PBS(−), and the cell lysis buffer supplied with the SingleShot (registered trademark) Cell Lysis Kit (Bio-Rad) was added dropwise at 50 μL/well to lysis the cells thereby providing the cell lysate.
Human RS virus RNA copy number in the cell lysate was determined by quantitative RT-PCR using iTaq Universal SYBR Green One-Step Kit (Bio-Rad). Specifically, primers targeting human RS virus N gene (Rameix-Welti et al, Nat Commun5: 5104, 2014. doi: 10.1038/ncomms6104) was used to prepare the reaction solution according to the instructions provided with the kit, and a 96-well PikoReal Real-Time PCR System (TCR0096, Thermo Fisher Scientific) was used to detect PCR reaction and signal assay.
The copy number was calculated by the relative method using the comparative Ct method using compound-free virus-infected cells as controls.

IC50 [µM]	SMILES
< 10	O=S(=O)(Cc1ccccc1)N1CCCC[C@H]1c1nc(CCCc2ccccc2)no1 [Compound 2E, 3-(3-phenylpropyl)-5-[(2S)-1-benzylsulfonylpiperidin-2-yl]-1,2,4-oxadiazole]
10 to 50	CS(=O)(=O)N1CCCC[C@H]1c1nc(CCCc2ccccc2)no1 [Compound 2C, 3-(3-phenylpropyl)-5-[(2S)-1-methanesulfonylpiperidin-2-yl]-1,2,4-oxadiazole]
> 50	CS(=O)(=O)N1C[C@H](O)C[C@H]1c1nc(CCCc2ccccc2)no1 [Compound 3C, 3-(3-phenylpropyl)-5-[(2S,4R)-4-hydroxy-1-methanesulfonylpyrrolidin-2-yl]-1,2,4-oxadiazole]

Same assay, conditions: 72 h; Vero cells infected with human RS virus A2 strain, 3 days of incubation, RS virus RNA copy number by quantitative RT-PCR; read-out: Anti-RS virus Activity

IC50 [µM]	SMILES
< 10	CN(C)c1cccc2c(S(=O)(=O)N3CC(CC4CCC4)CC3c3nc(CCCc4ccccc4)no3)cccc12 (stereo not drawn) [Compound 6AL, 5-((4-(cyclobuthylmethyl)-2-(3-(3-phenylpropyl)-1,2,4-oxadiazole-5-yl)pyrrolidin-1-yl)sulfonyl)-N,N-dimethylnaphthalen-1-amine]
10 to 50	O=S(=O)(N1CCCCC1)N1[C@@H]2CC[C@@H](C2)[C@H]1c1nnc(CCc2ccncc2)[nH]1 [Compound 25AD, (1R,3S,4S)-2-(piperidine-1-ylsulfonyl)-3-(5-(2-(pyridin-4-yl)ethyl)-4H-1,2,4-triazol-3-yl)-2-azabicyclo[2.2.1]heptane]
10 to 50	O=C(NCc1noc([C@@H]2CCCCN2S(=O)(=O)C2CCCCC2)n1)c1cccc2ccccc12 [Compound 26B, (S)—N-((5-(1-(cyclohexylsulfonyl)piperidin-2-yl)-1,2,4-oxadiazol-3-yl)methyl)-1-naphthamide]
10 to 50	CC(C)OC(=O)N1CCC[C@H]1c1nc(CCCc2ccccc2)no1 [Compound 1L, Isopropyl (S)-2-(3-(3-phenylpropyl)-1,2,4-oxadiazol-5-yl) pyrrolidine-1-carboxylate]
10 to 50	O=C(OC1CCCC1)N1CCC[C@H]1c1nc(CCCc2ccccc2)no1 [Compound 1O, Cyclopentyl (S)-2-(3-(3-phenylpropyl)-1,2,4-oxadiazol-5-yl) pyrrolidine-1-carboxylate]
10 to 50	COC(=O)c1nc([C@@H]2CCCCN2S(=O)(=O)C2CCCCC2)oc1C [Compound 32B, Methyl (S)-2-(1-(cyclohexylsulfonyl)piperidin-2-yl)-5-methyloxazole-4-carboxylate]
10 to 50	O=C(NCc1ccccc1)N1CCC[C@H]1c1nc(CCCc2ccccc2)no1 [Compound 1F, (S)—N-Benzyl-2-(3-(3-phenylpropyl)-1,2,4-oxadiazol-5-yl) pyrrolidine-1-carboxamide]
10 to 50	O=S(=O)(C1CCOCC1)N1CC2(CC2)C[C@H]1c1nc(CCCc2ccccc2)no1 [Compound 5AP, (S)-3-(3-phenylpropyl)-5-(5-((tetrahydro-2H-pyran-4-yl)sulfonyl)-5-azaspiro[2.4]heptan-6-yl)-1,2,4-oxadiazole]
10 to 50	O=S(=O)(N1CCCCC1)n1nc([C@H]2N[C@@H]3CC[C@H]2C3)nc1CCc1ccncc1 [25AD′]
< 10	CC(C)COC(=O)N1CCC[C@H]1c1nc(CCCc2ccccc2)no1 [Compound 1I, Isobutyl (S)-2-(3-(3-phenylpropyl)-1,2,4-oxadiazol-5-yl) pyrrolidine-1-carboxylate]
10 to 50	O=S(=O)(c1ccccc1)N1C[C@H](F)C[C@H]1c1nc(CCCc2ccccc2)no1 [Compound 8D, 3-(3-phenylpropyl)-5-[(2S,4R)-1-benzenesulfonyl-4-fluoropyrrolidin-2-yl]-1,2,4-oxadiazole]
10 to 50	CC(C)CS(=O)(=O)N1C[C@H](F)C[C@H]1c1nc(CCCc2ccccc2)no1 [Compound 8A, 3-(3-phenylpropyl)-5-[(2S,4R)-1-isobutylsulfonyl-4-fluoropyrrolidin-2-yl]-1,2,4-oxadiazole]
< 10	O=S(=O)(C1CCCCC1)N1CC2(CC2)C[C@H]1c1nc(CCCc2ccccc2)no1 [Compound 5B, 3-(3-phenylpropyl)-5-{(6S)-5-cyclohexylsulfonyl-5-azaspiro[2.4]hept-6-yl}-1,2,4-oxadiazole]
10 to 50	CC(C)(C)[S+]([O-])N1CCCC[C@H]1c1nc(CCCc2ccccc2)no1 (single isomer, unassigned) [2W′]
< 10	COc1ccc(S(=O)(=O)N2C[C@H](F)C[C@H]2c2nc(CCCc3ccccc3)no2)cc1 [Compound 8AI, 5-((2S,4R)-4-fluoro-1-((4-methoxyphenyl)sulfonyl)pyrrolidin-2-yl)-3-(3-phenylpropyl)-1,2,4-oxadiazole]
< 10	CC(C)CS(=O)(=O)N1CCC[C@H]1c1nc(CNC(=O)c2cccc3ccccc23)no1 [Compound 11A, 3-[(1-naphthoylamino)methyl]-5-[(2S)-1-isobutylsulfonylpyrrolidin-2-yl]-1,2,4-oxadiazole]
10 to 50	COc1ccc(C(=O)NCc2noc([C@@H]3CCCCN3S(=O)(=O)C3CCCCC3)n2)cc1OC [Compound 27B, (S)—N-((5-(1-(cyclohexylsulfonyl)piperidin-2-yl)-1,2,4-oxadiazol-3-yl)methyl)-3,4-dimethoxybenzamide]
10 to 50	O=S(=O)(N1CCCC[C@H]1c1nc(CCCc2ccccc2)no1)C12CC3CC(CC(C3)C1)C2 [Compound 2AG, 5-((S)-1-((adamantan-1-yl)sulfonyl)piperidin-2-yl)-3-(3-phenylpropyl)-1,2,4-oxadiazole]
< 10	O=C(C1CCCCC1)N1CCCC[C@H]1c1nc(CCCc2ccccc2)no1 [Compound 2Y, (S)-cyclohexyl(2-(3-(3-phenylpropyl)-1,2,4-oxadiazol-5-yl)piperidin-1-yl)methanone]
10 to 50	CCOC(=O)C1CCN(S(=O)(=O)N2C[C@H](c3ccccc3)C[C@H]2c2nc(CCCc3ccccc3)no2)CC1 [Compound 7AC, ethyl 1-(((2S,4S)-4-phenyl2-(3-(3-phenylpropyl)-1,2,4-oxadiazole-5-yl)pyrrolidin-1-yl)sulfonyl)piperidin-4-carboxylate]
10 to 50	CC(C)(C)OC(=O)N1[C@@H]2CC[C@@H](C2)[C@H]1c1nnc(Cc2cc3ccccc3[nH]2)[nH]1 [Compound 28-1, Tert-butyl (1R,3S,4S)-3-(5-((1H-indol-2-yl)methyl)-4H-1,2,4-triazol-3-yl)-2-azabicyclo[2.2.1]heptane-2-carboxylate]
< 10	CN(C)c1cccc2c(S(=O)(=O)N3C[C@H](F)C[C@H]3c3nc(CCCc4ccccc4)no3)cccc12 [Compound 8AL, 5-(((2S,4R)-4-fluoro-2-(3-(3-phenylpropyl)-1,2,4-oxadiazole-5-yl)pyrrolidin-1-yl)sulfonyl)-N,N-dimethylnaphthalen-1-amine]
10 to 50	CC(C)(C)OC(=O)N1[C@@H]2CC[C@@H](C2)[C@H]1c1nnc(Cc2c[nH]c3ccccc23)[nH]1 [Compound 24-1, Tert-butyl (1R,3S,4S)-3-(5-((1H-indol-3-yl)methyl)-4H-1,2,4-triazol-3-yl)-2-azabicyclo[2.2.1]heptane-2-carboxylate]
10 to 50	O=C(NCc1ccccc1)N1[C@@H]2CC[C@@H](C2)[C@H]1c1nnc(Cc2c[nH]c3ccccc23)[nH]1 [Compound 24F, (1R,3S,4S)-3-(5-((1H-indol-3-yl)methyl)-4H-1,2,4-triazol-3-yl)-N-benzyl-2-azabicyclo[2.2.1]heptane-2-carboxamide]
